Assay [1] in a line: A375 melanoma cell viability loss, dose response, counter-screen for MITF inhibitor project, CellTiter-Glo luminescence, dry powder, set 4 (AID 624364).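 Also: A375 melanoma cells are MITF independent so this is a counter screen.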 The note with it: A-375. It counts as functional, cell-based.
Assay [2] can be described thus: TRPM1 promoter luciferase reporter signal decrease, dose response, MITF inhibitor project, cell-based, SK-MEL-5, dry powder, set 9 (AID 651588). Format: functional.
Assay [3] is described as follows: A375 melanoma cell viability loss, dose response, counter-screen for MITF modulator project, CellTiter-Glo luminescence, dry powder, set 9 (AID 651591). Format: functional, cell-based. Particulars: A-375.
Assay [4] addresses Induced myeloid leukemia cell differentiation protein Mcl-1 (Homo sapiens, UniProt Q07820). It counts as functional.
Assay [5] addresses Nonstructural protein 1 (Influenza A virus, UniProt Q194T2). Format: functional, Influenza A virus (A/California/07/2009(H1N1)).
The target in assay [6] is T1, Streptokinase A (Streptococcus pyogenes serotype M1, UniProt P10520).
T1 sequence (P10520 whole entry): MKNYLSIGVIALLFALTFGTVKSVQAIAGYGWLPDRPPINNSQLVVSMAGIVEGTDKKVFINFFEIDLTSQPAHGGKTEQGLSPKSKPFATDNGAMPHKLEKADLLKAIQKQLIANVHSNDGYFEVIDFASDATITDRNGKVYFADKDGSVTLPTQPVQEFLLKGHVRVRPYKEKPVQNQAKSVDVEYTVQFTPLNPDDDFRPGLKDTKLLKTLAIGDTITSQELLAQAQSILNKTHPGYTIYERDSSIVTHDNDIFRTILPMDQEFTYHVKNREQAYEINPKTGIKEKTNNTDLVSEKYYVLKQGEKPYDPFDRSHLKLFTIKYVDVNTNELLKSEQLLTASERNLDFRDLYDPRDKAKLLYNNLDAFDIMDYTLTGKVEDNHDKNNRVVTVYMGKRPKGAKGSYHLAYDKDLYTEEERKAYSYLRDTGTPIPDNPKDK
Description: S. pyogenes streptokinase expression inhibitors, potency, dose response, plasminogen activation absorbance, OD405 (AID 1914).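 Also: secreted streptokinase activity via plasminogen activation per viability signal from cell pellet.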 It counts as functional, Streptococcus pyogenes M1 GAS.

In assay [7] the target is T2, Orexin receptor type 2 (Homo sapiens, UniProt O43614).
T2 sequence (O43614 whole entry): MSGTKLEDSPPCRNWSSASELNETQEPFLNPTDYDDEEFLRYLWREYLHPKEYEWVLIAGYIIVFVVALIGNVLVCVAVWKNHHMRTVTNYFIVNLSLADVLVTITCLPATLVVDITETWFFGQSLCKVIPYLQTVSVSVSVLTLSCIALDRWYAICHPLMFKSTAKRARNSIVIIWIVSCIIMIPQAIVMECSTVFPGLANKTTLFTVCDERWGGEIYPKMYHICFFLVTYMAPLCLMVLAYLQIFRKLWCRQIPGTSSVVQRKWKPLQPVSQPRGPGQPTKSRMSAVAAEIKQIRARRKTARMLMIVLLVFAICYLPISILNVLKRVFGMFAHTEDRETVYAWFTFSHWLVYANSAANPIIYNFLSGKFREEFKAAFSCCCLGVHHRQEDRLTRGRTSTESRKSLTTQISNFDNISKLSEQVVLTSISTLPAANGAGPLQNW
As to the kind of experiment: Counterscreen assay for antagonists of the orexin 1 receptor (OX1R; HCRTR1): Homogeneous Time Resolved Fluorescence (HTRF)-based cell-based dose response assay for antagonists of the orexin 2 receptor (OX2R; HCRTR2), run by assay provider. Format: functional.

Assay [8] has as its target Protein kinase C gamma type (Homo sapiens, UniProt P05129). It counts as functional.
For assay [9], the target named is Lymphokine-activated killer T-cell-originated protein kinase (Homo sapiens, UniProt Q96KB5). It counts as functional.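 Also: value comes from a kinase panel screen in which TOPK was one of the panel members.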
Assay [10] addresses MAP kinase-activated protein kinase 2 (Homo sapiens, UniProt P49137). Format: functional.
The target in assay [11] is Calcium/calmodulin-dependent protein kinase type II subunit delta (Homo sapiens, UniProt Q13557). It counts as functional.
The target in assay [12] is 5'-AMP-activated protein kinase catalytic subunit alpha-1 (Homo sapiens, UniProt Q13131). Format: functional.
In assay [13] the target is SRSF protein kinase 1 (Homo sapiens, UniProt Q96SB4). Format: functional.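 Also: measured as one member of a kinome-wide kinase profiling panel.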
In assay [14] the target is Serine/threonine-protein kinase 17A (Homo sapiens, UniProt Q9UEE5). It counts as functional.
Assay [15] concerns the target Mitogen-activated protein kinase kinase kinase kinase 5 (Homo sapiens, UniProt Q9Y4K4). It counts as functional.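 Also: measured as one member of a kinome-spanning kinase panel.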
For assay [16], the target named is Inhibitor of nuclear factor kappa-B kinase subunit epsilon (Homo sapiens, UniProt Q14164). Description: Navigating the Kinome. Panel member name: IKBKE. Format: functional.
Assay [17] addresses Dual specificity protein kinase CLK2 (Homo sapiens, UniProt P49760). Format: functional.
Assay [18] deals with Tyrosine-protein kinase Srms (Homo sapiens, UniProt Q9H3Y6). Format: functional.
The target in assay [19] is Mitogen-activated protein kinase 8 (Homo sapiens, UniProt P45983). Format: functional.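 Also: value comes from one member of a kinome-wide kinase profiling panel.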
In assay [20] the target is Activated CDC42 kinase 1 (Homo sapiens, UniProt Q07912). As to the kind of experiment: Navigating the Kinome. Panel member name: ACK1. Format: functional.
The target of assay [21] is MAP/microtubule affinity-regulating kinase 3 (Homo sapiens, UniProt P27448). It counts as functional.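 Also: MARK3 affinity measured as one member of a kinome panel.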
Assay [22] concerns the target Tyrosine-protein kinase Fyn (Homo sapiens, UniProt P06241). It counts as functional.
Assay [23] has as its target Serine/threonine-protein kinase Chk1 (Homo sapiens, UniProt O14757). It counts as functional.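 Also: measured as one member of a kinome-wide kinase profiling panel.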
Assay [24] has as its target cAMP-dependent protein kinase catalytic subunit alpha (Homo sapiens, UniProt P17612). Format: functional.
Assay [25] has as its target Focal adhesion kinase 1 (Homo sapiens, UniProt Q05397). Format: functional.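 Also: measured as one member of a kinome panel.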
Assay [26] deals with MAP kinase-activated protein kinase 3 (Homo sapiens, UniProt Q16644). It counts as functional.
Assay [27] addresses Serine/threonine-protein kinase PAK 1 (Homo sapiens, UniProt Q13153). Format: functional.
In assay [28] the target is Activin receptor type-1 (Homo sapiens, UniProt Q04771). Description: Navigating the Kinome. Panel member name: ACVR1. It counts as functional.
Assay [29] addresses cGMP-dependent protein kinase 1 (Homo sapiens, UniProt Q13976). Format: functional.
Assay [30] has as its target Phosphorylase b kinase gamma catalytic chain, liver/testis isoform (Homo sapiens, UniProt P15735). It counts as functional.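 Also: PHKG2 measured as one member of a kinome-wide kinase panel.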
For assay [31], the target named is Death-associated protein kinase 3 (Homo sapiens, UniProt O43293). Format: functional.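 Also: measured as one member of a kinome-wide profiling panel.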
In assay [32] the target is Cell division cycle 7-related protein kinase (Homo sapiens, UniProt O00311). It counts as functional.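 Also: value obtained from a kinome-wide kinase panel.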

The source made the active and inactive calls.

Sequence of MAP kinase-activated protein kinase 3 (Q16644 whole entry): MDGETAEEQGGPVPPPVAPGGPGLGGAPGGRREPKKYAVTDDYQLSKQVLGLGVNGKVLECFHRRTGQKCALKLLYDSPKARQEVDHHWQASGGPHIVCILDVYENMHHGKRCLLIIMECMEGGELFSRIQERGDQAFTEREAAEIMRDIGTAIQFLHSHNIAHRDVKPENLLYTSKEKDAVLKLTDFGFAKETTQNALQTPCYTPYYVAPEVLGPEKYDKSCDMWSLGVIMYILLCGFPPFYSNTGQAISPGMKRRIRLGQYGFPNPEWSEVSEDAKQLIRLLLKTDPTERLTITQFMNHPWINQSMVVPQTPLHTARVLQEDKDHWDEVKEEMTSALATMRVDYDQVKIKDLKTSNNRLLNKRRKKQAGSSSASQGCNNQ
Sequence of Tyrosine-protein kinase Fyn (P06241 whole entry): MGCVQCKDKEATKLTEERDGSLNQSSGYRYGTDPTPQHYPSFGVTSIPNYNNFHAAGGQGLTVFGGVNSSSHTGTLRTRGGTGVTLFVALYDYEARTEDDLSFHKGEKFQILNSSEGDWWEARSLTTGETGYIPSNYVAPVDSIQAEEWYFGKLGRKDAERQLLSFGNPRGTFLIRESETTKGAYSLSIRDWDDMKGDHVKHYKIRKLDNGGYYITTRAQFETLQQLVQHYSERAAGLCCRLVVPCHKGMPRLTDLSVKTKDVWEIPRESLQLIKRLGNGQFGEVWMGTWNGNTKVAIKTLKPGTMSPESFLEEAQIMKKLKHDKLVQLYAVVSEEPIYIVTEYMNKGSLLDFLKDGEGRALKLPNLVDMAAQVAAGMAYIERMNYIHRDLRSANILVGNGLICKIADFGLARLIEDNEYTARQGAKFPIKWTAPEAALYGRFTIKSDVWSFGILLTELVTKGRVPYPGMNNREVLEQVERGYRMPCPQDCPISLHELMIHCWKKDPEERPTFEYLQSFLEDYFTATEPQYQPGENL
Sequence of Phosphorylase b kinase gamma catalytic chain, liver/testis isoform (P15735 whole entry, canonical isoform): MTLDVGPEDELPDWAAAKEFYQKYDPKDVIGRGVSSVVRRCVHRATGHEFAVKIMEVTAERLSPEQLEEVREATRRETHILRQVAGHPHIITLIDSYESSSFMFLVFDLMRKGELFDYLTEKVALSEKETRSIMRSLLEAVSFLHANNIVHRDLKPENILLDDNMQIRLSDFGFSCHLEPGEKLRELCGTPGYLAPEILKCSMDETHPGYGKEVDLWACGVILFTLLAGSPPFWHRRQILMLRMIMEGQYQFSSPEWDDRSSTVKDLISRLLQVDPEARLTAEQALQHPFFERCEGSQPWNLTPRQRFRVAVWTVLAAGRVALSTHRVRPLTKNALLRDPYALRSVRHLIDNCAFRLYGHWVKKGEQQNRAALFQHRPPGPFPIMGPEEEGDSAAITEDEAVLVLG
Sequence of Death-associated protein kinase 3 (O43293 whole entry): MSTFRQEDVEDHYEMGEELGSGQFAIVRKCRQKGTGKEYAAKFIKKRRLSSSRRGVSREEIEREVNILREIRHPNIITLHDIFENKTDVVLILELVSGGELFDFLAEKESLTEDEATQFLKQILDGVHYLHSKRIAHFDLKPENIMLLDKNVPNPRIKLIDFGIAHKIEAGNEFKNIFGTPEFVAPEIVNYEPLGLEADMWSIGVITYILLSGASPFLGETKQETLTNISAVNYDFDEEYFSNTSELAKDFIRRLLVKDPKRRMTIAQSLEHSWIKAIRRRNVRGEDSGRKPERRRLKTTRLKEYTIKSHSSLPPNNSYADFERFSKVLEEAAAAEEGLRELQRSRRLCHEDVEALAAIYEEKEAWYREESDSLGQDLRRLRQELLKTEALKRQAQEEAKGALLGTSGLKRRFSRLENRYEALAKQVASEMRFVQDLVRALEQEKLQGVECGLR
Sequence of Calcium/calmodulin-dependent protein kinase type II subunit delta (Q13557 whole entry): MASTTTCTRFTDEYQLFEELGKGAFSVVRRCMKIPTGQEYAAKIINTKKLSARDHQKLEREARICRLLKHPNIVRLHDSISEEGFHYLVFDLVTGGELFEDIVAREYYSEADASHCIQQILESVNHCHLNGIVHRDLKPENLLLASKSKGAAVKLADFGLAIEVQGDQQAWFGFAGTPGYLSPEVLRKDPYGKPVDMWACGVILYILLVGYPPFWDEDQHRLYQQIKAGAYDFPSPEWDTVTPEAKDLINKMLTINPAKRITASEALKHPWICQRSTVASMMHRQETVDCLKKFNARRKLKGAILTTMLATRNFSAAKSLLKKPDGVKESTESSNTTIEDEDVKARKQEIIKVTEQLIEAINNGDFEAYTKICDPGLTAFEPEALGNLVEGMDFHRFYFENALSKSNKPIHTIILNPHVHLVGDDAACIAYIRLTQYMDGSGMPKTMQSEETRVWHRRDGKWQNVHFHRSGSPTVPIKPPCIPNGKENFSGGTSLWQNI
Sequence of Mitogen-activated protein kinase kinase kinase kinase 5 (Q9Y4K4 whole entry): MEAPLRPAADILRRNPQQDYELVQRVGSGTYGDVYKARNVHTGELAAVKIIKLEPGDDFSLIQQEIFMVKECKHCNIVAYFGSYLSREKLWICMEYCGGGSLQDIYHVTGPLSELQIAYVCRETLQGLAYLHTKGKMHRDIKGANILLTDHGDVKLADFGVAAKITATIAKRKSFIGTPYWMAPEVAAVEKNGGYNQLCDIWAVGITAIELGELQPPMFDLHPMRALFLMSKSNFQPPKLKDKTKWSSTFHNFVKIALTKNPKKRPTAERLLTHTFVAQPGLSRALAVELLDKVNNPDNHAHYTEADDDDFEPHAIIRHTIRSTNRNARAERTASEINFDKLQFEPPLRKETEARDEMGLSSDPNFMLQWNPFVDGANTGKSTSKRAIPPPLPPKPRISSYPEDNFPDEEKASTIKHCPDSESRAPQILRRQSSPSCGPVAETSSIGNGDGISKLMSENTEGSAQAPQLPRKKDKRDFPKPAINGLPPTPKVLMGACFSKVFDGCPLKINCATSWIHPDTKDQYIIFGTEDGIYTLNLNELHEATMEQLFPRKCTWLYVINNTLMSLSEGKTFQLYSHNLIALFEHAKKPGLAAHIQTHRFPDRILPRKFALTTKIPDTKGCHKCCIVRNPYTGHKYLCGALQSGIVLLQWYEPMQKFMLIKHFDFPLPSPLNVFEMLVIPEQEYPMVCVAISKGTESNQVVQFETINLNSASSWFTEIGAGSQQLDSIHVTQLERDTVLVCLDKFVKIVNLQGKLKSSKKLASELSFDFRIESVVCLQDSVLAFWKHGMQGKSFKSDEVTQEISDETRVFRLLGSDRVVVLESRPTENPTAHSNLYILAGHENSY
Sequence of Nonstructural protein 1 (Q194T2 whole entry): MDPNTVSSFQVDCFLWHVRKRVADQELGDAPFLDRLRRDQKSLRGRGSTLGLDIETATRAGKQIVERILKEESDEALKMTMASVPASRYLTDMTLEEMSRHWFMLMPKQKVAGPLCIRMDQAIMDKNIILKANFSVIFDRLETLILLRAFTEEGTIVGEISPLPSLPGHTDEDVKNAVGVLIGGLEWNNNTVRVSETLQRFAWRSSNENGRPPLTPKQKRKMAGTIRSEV
Sequence of Tyrosine-protein kinase Srms (Q9H3Y6 whole entry): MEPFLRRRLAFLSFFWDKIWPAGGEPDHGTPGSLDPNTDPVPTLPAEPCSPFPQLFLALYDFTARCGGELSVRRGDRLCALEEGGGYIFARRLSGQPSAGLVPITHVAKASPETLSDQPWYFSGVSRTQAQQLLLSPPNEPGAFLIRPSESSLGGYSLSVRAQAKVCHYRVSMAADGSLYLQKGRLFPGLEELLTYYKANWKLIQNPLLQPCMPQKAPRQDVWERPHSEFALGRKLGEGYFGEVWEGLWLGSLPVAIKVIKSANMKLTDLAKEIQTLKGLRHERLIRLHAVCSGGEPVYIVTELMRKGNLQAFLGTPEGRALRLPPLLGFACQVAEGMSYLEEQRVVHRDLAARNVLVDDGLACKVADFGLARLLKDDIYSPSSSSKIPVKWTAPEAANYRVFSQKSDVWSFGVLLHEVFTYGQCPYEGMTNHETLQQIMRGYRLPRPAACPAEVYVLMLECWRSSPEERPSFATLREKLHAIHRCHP
Sequence of Serine/threonine-protein kinase 17A (Q9UEE5 whole entry): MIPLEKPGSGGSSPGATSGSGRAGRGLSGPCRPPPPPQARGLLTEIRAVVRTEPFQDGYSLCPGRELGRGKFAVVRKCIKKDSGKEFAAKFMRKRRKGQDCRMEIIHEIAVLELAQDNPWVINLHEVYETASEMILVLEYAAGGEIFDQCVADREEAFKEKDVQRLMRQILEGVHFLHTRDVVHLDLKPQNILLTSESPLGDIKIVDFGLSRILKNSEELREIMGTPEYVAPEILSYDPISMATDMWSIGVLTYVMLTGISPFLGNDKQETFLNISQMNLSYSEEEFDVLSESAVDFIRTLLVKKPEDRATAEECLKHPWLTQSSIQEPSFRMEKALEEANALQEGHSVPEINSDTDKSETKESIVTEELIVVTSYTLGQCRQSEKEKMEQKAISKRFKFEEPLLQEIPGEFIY

Regarding `C=CCNC1=C(Cl)C(=O)c2ccccc2C1=O`, the values for the AC50 in assay [1], in assay [2] and in [3] were > 70000 nM (inactive), 5580 nM (active) and > 70000 nM (inactive), respectively.

In the case of `CS(=O)(=O)c1ccc2c(c1)SC1=NC(=O)/C(=C/c3ccc(O)c(O)c3)C(=N)N12`, the IC50 in [4] was 5260 nM (active).

For `CCOC(=O)C(C(=O)OCC)c1cc(Br)c2noc3c2c1C(=O)c1ccccc1-3`, in assay [5], the IC50 was 35500 nM (active). Besides, in assay [6], the EC50 was 11900 nM (active).

As for `CN(C)c1ccc(-c2nnc(-c3cccs3)o2)cc1`, the IC50 in [7] is > 50000 nM (inactive).

With `COc1ccc(C(=O)Nc2n[nH]c3ccc(-c4cn(Cc5ccccc5)nn4)cc23)cc1OC`, the Ki is 126 nM (active) in assay [8]; > 10000 nM (inactive) in [9]; 2000 nM (active) in [10]; 794 nM (active) in [11]; 63.1 nM (active) in assay [12]; 1580 nM (active) in assay [13]. The Ki was 50.1 nM (active) in [14]; 501 nM (active) in assay [15]; 200 nM (active) in assay [16]; 63.1 nM (active) in [17]; > 1580 nM (inactive) in assay [18]; 631 nM (active) in assay [19]. Moreover, the Ki in assay [20] is > 3980 nM (inactive); in [21], 63.1 nM (active); in assay [22], 251 nM (active); in [23], 3980 nM (active); in assay [24] it was 501 nM (active); in assay [25], > 6310 nM (inactive). For the same compound, the Ki in assay [26] is > 10000 nM (inactive); in assay [27] it was > 10000 nM (inactive); in assay [28], 1000 nM (active); in assay [29] it was 631 nM (active); in [30], 316 nM (active); in [31] it was 31.6 nM (active). In addition, the Ki in assay [32] was 1.26 nM (active).

The values above are taken from ChEMBL document CHEMBL1201862, “PubChem BioAssay data set” (2004).
